Molecular target: Adenylate cyclase type 1 (Rattus norvegicus, UniProt D4A3N4)
Test: Inhibition of dopamine-sensitive rat brain adenylyl cyclase activity assessed as cAMP level

Chain of Adenylate cyclase type 1 (D4A3N4 whole entry): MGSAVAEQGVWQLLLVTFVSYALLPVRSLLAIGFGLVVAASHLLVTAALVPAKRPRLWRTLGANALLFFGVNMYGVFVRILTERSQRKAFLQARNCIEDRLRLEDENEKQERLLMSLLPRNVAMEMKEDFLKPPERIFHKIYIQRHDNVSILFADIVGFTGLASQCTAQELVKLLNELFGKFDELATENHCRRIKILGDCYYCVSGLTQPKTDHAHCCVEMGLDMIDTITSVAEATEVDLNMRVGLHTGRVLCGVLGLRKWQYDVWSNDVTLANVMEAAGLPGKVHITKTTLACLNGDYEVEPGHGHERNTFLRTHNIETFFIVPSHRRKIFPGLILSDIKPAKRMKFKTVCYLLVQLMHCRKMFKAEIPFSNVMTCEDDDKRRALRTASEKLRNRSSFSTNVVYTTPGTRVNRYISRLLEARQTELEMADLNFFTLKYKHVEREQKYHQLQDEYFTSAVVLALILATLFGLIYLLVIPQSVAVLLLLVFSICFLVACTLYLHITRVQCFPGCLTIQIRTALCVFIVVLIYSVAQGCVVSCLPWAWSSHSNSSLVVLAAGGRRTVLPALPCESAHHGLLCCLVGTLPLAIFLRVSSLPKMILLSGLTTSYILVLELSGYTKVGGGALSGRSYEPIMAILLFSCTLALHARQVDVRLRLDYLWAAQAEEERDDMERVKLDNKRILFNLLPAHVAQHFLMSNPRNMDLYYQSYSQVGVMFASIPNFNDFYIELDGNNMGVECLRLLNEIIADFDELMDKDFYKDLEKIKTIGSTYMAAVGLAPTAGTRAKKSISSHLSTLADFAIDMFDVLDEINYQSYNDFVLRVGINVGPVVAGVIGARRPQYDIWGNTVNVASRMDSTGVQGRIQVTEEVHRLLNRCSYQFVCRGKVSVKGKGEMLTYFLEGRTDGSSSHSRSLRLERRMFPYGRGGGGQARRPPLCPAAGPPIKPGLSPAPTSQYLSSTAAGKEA

Structure (SMILES) | IC50 [nM]
c1ccc(C2=Nc3ccccc3N=C(N3CCC(c4ccccc4)CC3)C2)cc1 | 4.5
CN1CCN(C2=Nc3cc(Cl)ccc3Nc3ccccc32)CC1 [8-Chloro-11-(4-methyl-piperazin-1-yl)-5H-dibenzo[b,e][1,4]diazepine(Clopazine)] | 1.4

From BindingDB's records for doi:10.1021/jm00207a020 (1978)
